pIC50, pKi: −log10 of the molar value.
target: T1, hLDH5 (LDH-A) (Homo sapiens, UniProt P00338); assay: Enzyme inhibition of human lactate dehydrogenase isoform 5; type: biochemical; conditions: ranges of values; 37° C., pH 7.4; read-out: inhibitory activity against hLDH5 (Ki)
T1 construct: purchased LEEBIO (USA)
Procedure: The compounds described in the examples were evaluated in enzymatic assays to assess its inhibitory properties against two human isoforms of lactate dehydrogenase, hLDH5 containing solely the subunit LDH-A (LEEBIO—USA), and the hLDH1 containing only the LDH subunits-B (Sigma Aldrich, USA), in order to verify the selectivity of these compounds.
(for Ki measurements). Such assays were conducted in cells containing 200 μL of a solution comprising the reagents dissolved in phosphate buffer (KH2PO4 and K2HPO4) at pH 7.4.
IC50 values were calculated as described below. […] Seven different concentrations (in duplicate for each concentration) of compound were used to generate a concentration-response curve. […] Compound solutions were dispensed in 96-well plates (8 μL), then substrate and cofactor dissolved in buffer (152 μl) and enzyme solution (40 μl) were finally added. Dilution of the enzyme stock solution was made to allow a 10% consumption of the cofactor after 15 min. The eventual background fluorescence of the tested compounds or quenching of the NADH fluorescence by the tested compounds was subtracted. In addition to the compound test wells, each plate contained maximum and minimum controls. Assay plates were incubated at room temperature for 15 min and the final measurements were performed using Victor X3 Microplates reader (PerkinElmer®) at a fluorescence emission wavelength of 460 nm (excitation at 340 nm). IC50 were generated using the curve-fitting tool of GraphPad Prism].
The resulting data of enzymatic kinetic (the constants of Michaelis-Menten) were determined by analysis of non-linear regression.

| SMILES | pKi |
| --- | --- |
| COC(=O)c1cc2c(F)cc(-c3ccccc3)cc2n1O [Example 51, methyl 4-fluoro-1-hydroxy-6-phenyl-1H-indole-2-carboxylate] | 4.00 to 5.00 |
| O=C(O)c1cc2c(C(F)(F)F)cc(-c3cccc(Cl)c3Cl)cc2n1O [Example 37, 6-(2,3-dichlorophenyl)-1-hydroxy-4-(trifluoromethyl)-1H-indole-2-carboxylic acid] | 5.00 to 6.00 |
| O=C(O)c1cc2c(C(F)(F)F)cc(-c3cc(Cl)ccc3Cl)cc2n1O [Example 39, 6-(2,5-dichlorophenyl)-1-hydroxy-4-(trifluoromethyl)-1H-indole-2-carboxylic acid] | 4.60 to 5.30 |
| O=C(O)c1cc2c(C(F)(F)F)cc(-c3ccc(Cl)c(Cl)c3)cc2n1O [Example 27, 6-(3,4-dichlorophenyl)-1-hydroxy-4-(trifluoromethyl)-1H-indole-2-carboxylic acid] | 5.00 to 6.00 |
| O=C(O)c1cc2c(C(F)(F)F)cc(-c3ccccc3)cc2n1O[C@@H]1O[C@H](CO)[C@@H](O)[C@H](O)[C@H]1O [Example 2, 6-phenyl-1-(β-D-glucopyranosyl)oxy-4-(trifluoromethyl)-1H-indole-2-carboxylic acid] | 4.00 to 5.00 |
| O=C(O)c1cc2c(C(F)(F)F)cc(-c3ccc(OC(F)(F)F)cc3)cc2n1O [Example 24, 1-hydroxy-4-(trifluoromethyl)-6-(4-(trifluoromethoxy)phenyl)-1H-indole-2-carboxylic acid] | 5.30 to 6.30 |
| O=C(O)c1cc2c(F)cc(-c3ccc(Cl)cc3Cl)cc2n1O [Example 54, 6-(2,4-dichlorophenyl)-4-fluoro-1-hydroxy-1H-indole-2-carboxylic acid] | 4.60 to 5.30 |
| O=C(O)c1cc2c(F)cc(-c3ccccc3)cc2n1O [Example 52, 4-fluoro-1-hydroxy-6-phenyl-1H-indole-2-carboxylic acid] | 4.60 to 5.30 |
| COC(=O)c1cc2c(C(F)(F)F)cc(-c3ccc(OC(F)(F)F)cc3)cc2n1O [Example 18, methyl 1-hydroxy-4-(trifluoromethyl)-6-(4-(trifluoromethoxy)phenyl)-1H-indole-2-carboxylate] | 5.00 to 6.00 |

same assay, conditions: ranges of values; room temperature, pH 7.4; read-out: inhibitory activity against hLDH5 (IC50)

| SMILES | pIC50 |
| --- | --- |
| CCOC(=O)c1cc2c(C(F)(F)F)cc(-c3ccccc3)cc2n1O[C@@H]1O[C@H](CO)[C@@H](O)[C@H](O)[C@H]1O [Example 6, ethyl 6-phenyl-1-(β-D-glucopyranosyl)oxy-4-(trifluoromethyl)-1H-indole-2-carboxylate] | 3.30 to 4.30 |
| CCCCOC(=O)c1cc2c(C(F)(F)F)cc(-c3ccc(Cl)cc3Cl)cc2n1O[C@@H]1O[C@H](CO)[C@@H](O)[C@H](O)[C@H]1O [Example 47, butyl 6-(2,4-dichlorophenyl)-1-(β-D-glucopyranosyl)oxy-4-(trifluoromethyl)-1H-indole-2-carboxylate] | < 4.00 |
| COC(=O)c1c(C)c2c(C(F)(F)F)cc(-c3ccc(Cl)cc3Cl)cc2n1O [Example 20, methyl 6-(2,4-dichlorophenyl)-1-hydroxy-3-methyl-4-(trifluoromethyl)-1H-indole-2-carboxylate] | 5.00 to 6.00 |
| COC(=O)c1cc2c(C(F)(F)F)cc(-c3ccc(Cl)c(Cl)c3)cc2n1O [Example 21, methyl 6-(3,4-dichlorophenyl)-1-hydroxy-4-(trifluoromethyl)-1H-indole-2-carboxylate] | < 4.00 |
| COC(=O)c1cc2c(C(F)(F)F)cc(-c3ccccc3)c(-c3ccccc3)c2n1O [Example 14, methyl 1-hydroxy-6,7-diphenyl-4-(trifluoromethyl)-1H-indole-2-carboxylate] | 5.00 to 6.00 |
| CN1CCC(OC(=O)c2cc3c(C(F)(F)F)cc(-c4ccccc4)cc3n2O)CC1 [Example 57, 1-methylpiperidin-4-yl 1-hydroxy-6-phenyl-4-(trifluoromethyl)-1H-indole-2-carboxylate] | < 4.00 |
| O=C(OCc1ccc(F)cc1)c1cc2c(C(F)(F)F)cc(-c3ccc(Cl)cc3Cl)cc2n1O [Example 62, 4-fluorobenzyl 6-(2,4-dichlorophenyl)-1-hydroxy-4-(trifluoromethyl)-1H-indole-2-carboxylate] | 6.00 to 8.00 |
| COc1ccc(COC(=O)c2cc3c(C(F)(F)F)cc(-c4ccc(Cl)cc4Cl)cc3n2O)cc1 [Example 60, 4-methoxybenzyl 6-(2,4-dichlorophenyl)-1-hydroxy-4-(trifluoromethyl)-1H-indole-2-carboxylate] | 6.00 to 8.00 |
| CCOC(=O)c1cc2c(C(F)(F)F)cc(-c3ccc(Cl)cc3Cl)cc2n1O[C@@H]1O[C@H](CO)[C@@H](O)[C@H](O)[C@H]1O [Example 12, ethyl 6-(2,4-dichlorophenyl)-1-(β-D-glucopyranosyl)oxy-4-(trifluoromethyl)-1H-indole-2-carboxylate] | 3.30 to 4.30 |
| CC(C)(C)C1CCC(OC(=O)c2cc3c(C(F)(F)F)cc(-c4ccc(Cl)cc4Cl)cc3n2O)CC1 (stereo not shown) [Example 50, 4-(tert-butyl)cyclohexyl 6-(2,4-dichlorophenyl)-1-hydroxy-4-(trifluoromethyl)-1H-indole-2-carboxylate] | 6.00 to 8.00 |
| CCOC(=O)c1cc2c(C(F)(F)F)cc(-c3ccc(Cl)cc3Cl)cc2n1O[C@@H]1O[C@H](COC(C)=O)[C@@H](OC(C)=O)[C@H](OC(C)=O)[C@H]1OC(C)=O [Example 13, ethyl 6-(2,4-dichlorophenyl)-1-(β-d-2,3,4,6-tetra-O-acetylglucopyranosyl)oxy-4-(trifluoromethyl)-1H-indole-2-carboxylate] | < 4.00 |
| CC(C)(C)C1CCC(OC(=O)c2cc3c(C(F)(F)F)cc(-c4ccccc4)cc3n2O)CC1 (stereo not shown) [Example 49, 4-(tert-butyl)cyclohexyl 1-hydroxy-6-phenyl-4-(trifluoromethyl)-1H-indole-2-carboxylate] | 6.00 to 8.00 |
| O=C(OCc1ccc(-c2ccccc2)cc1)c1cc2c(C(F)(F)F)cc(-c3ccc(Cl)cc3Cl)cc2n1O [Example 56, [1,1′-biphenyl]-4-ylmethyl 6-(2,4-dichlorophenyl)-1-hydroxy-4-(trifluoromethyl)-1H-indole-2-carboxylate] | 6.00 to 8.00 |
| CC(C)OC(=O)c1cc2c(C(F)(F)F)cc(-c3ccc(Cl)cc3Cl)cc2n1O[C@@H]1O[C@H](CO)[C@@H](O)[C@H](O)[C@H]1O [Example 45, isopropyl 6-(2,4-dichlorophenyl)-1-(β-D-glucopyranosyl)oxy-4-(trifluoromethyl)-1H-indole-2-carboxylate] | < 4.00 |
| CC(=O)OC[C@H]1O[C@@H](On2c(C(=O)OC(C)C)cc3c(C(F)(F)F)cc(-c4ccc(Cl)cc4Cl)cc32)[C@H](OC(C)=O)[C@@H](OC(C)=O)[C@@H]1OC(C)=O [Example 44, isopropyl 6-(2,4-dichlorophenyl)-1-(β-d-2,3,4,6-tetra-O-acetylglucopyranosyl)oxy-4-(trifluoromethyl)-1H-indole-2-carboxylate] | < 4.00 |
| O=C(OCc1ccccc1)c1cc2c(C(F)(F)F)cc(-c3ccc(Cl)cc3Cl)cc2n1O [Example 55, benzyl 6-(2,4-dichlorophenyl)-1-hydroxy-4-(trifluoromethyl)-1H-indole-2-carboxylate] | 6.00 to 8.00 |
| CCOC(=O)c1cc2c(C(F)(F)F)cc(-c3ccccc3)cc2n1O[C@@H]1O[C@H](COC(C)=O)[C@@H](OC(C)=O)[C@H](OC(C)=O)[C@H]1OC(C)=O [Example 7, ethyl 6-phenyl-1-(β-d-2,3,4,6-tetra-O-acetylglucopyranosyl)oxy-4-(trifluoromethyl)-1H-indole-2-carboxylate] | < 4.00 |
| O=C(OCc1ccc([N+](=O)[O-])cc1)c1cc2c(C(F)(F)F)cc(-c3ccc(Cl)cc3Cl)cc2n1O [Example 61, 4-nitrobenzyl 6-(2,4-dichlorophenyl)-1-hydroxy-4-(trifluoromethyl)-1H-indole-2-carboxylate] | 6.00 to 8.00 |
| CCCCOC(=O)c1cc2c(C(F)(F)F)cc(-c3ccccc3)cc2n1O[C@@H]1O[C@H](COC(C)=O)[C@@H](OC(C)=O)[C@H](OC(C)=O)[C@H]1OC(C)=O [Example 28, butyl 6-phenyl-1-(β-D-2,3,4,6-tetra-O-acetylglucopyranosyl)oxy-4-(trifluoromethyl)-1H-indole-2-carboxylate] | < 4.00 |
| O=C(OC1CCN(Cc2ccccc2)CC1)c1cc2c(C(F)(F)F)cc(-c3ccc(Cl)cc3Cl)cc2n1O [Example 59, 1-benzylpiperidin-4-yl 6-(2,4-dichlorophenyl)-1-hydroxy-4-(trifluoromethyl)-1H-indole-2-carboxylate] | < 4.00 |
| O=C(OCc1ccc(Cl)cc1)c1cc2c(C(F)(F)F)cc(-c3ccc(Cl)cc3Cl)cc2n1O [Example 63, 4-chlorobenzyl 6-(2,4-dichlorophenyl)-1-hydroxy-4-(trifluoromethyl)-1H-indole-2-carboxylate] | 6.00 to 8.00 |
| CCCCOC(=O)c1cc2c(C(F)(F)F)cc(-c3ccc(Cl)cc3Cl)cc2n1O[C@@H]1O[C@H](COC(C)=O)[C@@H](OC(C)=O)[C@H](OC(C)=O)[C@H]1OC(C)=O [Example 46, butyl 6-(2,4-dichlorophenyl)-1-(β-d-2,3,4,6-tetra-O-acetylglucopyranosyl)oxy-4-(trifluoromethyl)-1H-indole-2-carboxylate] | < 4.00 |

— patent US20140343001A1, “INDOLE DERIVATIVES INHIBITORS OF ENZYME LACTATE DEHYDROGENASE (LDH)” (Universitá di Pisa, priority 2011, published 2014)
